Results from patent publication US10350308B2, “Molecular probes for imaging myelin” (priority 2010, dated 2019).
“Also recorded” adds a separate entry of the source.

Legend:
[1] = Fluorescent excitation and emission spectra; format: physicochemical; details: 100 nM in DMSO
Method: The fluorescent excitation and emission spectrum is recorded using Varian fluorescent spectroscopy at the concentration of […] in DMSO.
The excitation and emission spectra of CNP were recorded using Cary Eclipse Fluorescence Spectrophotometers (Varian, Inc.; Palo Alto, Calif.) at 25° C. in DMSO, at a concentration of 100 nM. The excitation and emission slits were 5 nm, the scan rate was 600 nm/min, and the data interval was 1 nm.

myelin sheaths = assay: In vitro fluorescent tissue staining of mouse brain sections; format: binding; details: compared with MBP antibody
[2] = Brain permeability by co-registration of fluorescent and X-ray images; format: in vivo; details: 0.1 mg/kg i.v., 20 minutes post injection, wild-type mice
Method: The fur of the mouse was shaved to avoid the problem of autofluorescence. 20 minutes after the i.v. injection of CNIR 0.1 mg/kg, the mouse was anesthetized utilizing isoflurane gas. The mouse was positioned on the center of the platen and imaged via fluorescence (ex 760 em 790) and X-ray. Vertical Resolution: 885 ppi, horizontal Resolution: 885 ppi. To determine the brain permeability of CNIR, we administered CNIR to wild-type mice through intravenous injection in tail vein. At 20 minutes post injection of CNIR (0.1 mg/kg), both X-ray and fluorescent images of the mouse brain were acquired using KODAK In-Vivo Multispectral System FX (FIG. 3). Co-registration of high quality X-ray image and fluorescent image confirmed that the strong fluorescence was indeed emitted from inside the brain.

myelin [3] = assay: In vivo NIRF imaging in hypermyelinated mouse model; set-up: species or system Plp-Akt-DD mice and wild-type mice; details: 0.1 mg/kg i.v.
Method: The in vivo Near-infrared fluorescence imaging was carried out using Xenogen IVIS Imaging System 200, (Caliper Life Science, Inc., Hopkinton, Mass.). To avoid the influence of the autofluorescence and light scattering due to the fur, all the mice were shaved before experiment. After the i.v. injection of CNIR 0.1 mg/kg, the mouse was anesthetized utilizing isoflurane gas, the mouse was positioned on the center of the stage (working temperature 20-40° C.). The Near-infrared images were acquired by Back-thinned, back-illuminated grade 1 CCD, which is thermoelectrically cooled to −90° C. ensuring low dark current and low noise. The fluorescent filter set for excitation was 705-780 nm, for emission was 810-885 nm. The experiments were controlled with Living Image 3.1 (Caliper Life Science. Inc., Hopkinton, Mass.). Lens: f/2. Field of view: 6.5 cm×6.5 cm. Imaging Pixels: 2048×2048. Exposure time: 0.5 s for all the images. The near-infrared images were evaluated by Living Image 3.1 (Caliper Life Science. Inc., Hopkinton, Mass.). All the images used photon as the unit for the quantification, and the images were shown as overlaid photograph with fluorescence. Statistical analysis was performed using two-tailed t-test with GraphPad Prism 5, (GraphPad Software, Inc., La Jolla, Calif.). CNIR (0.1 mg/kg) and vehicle (0.05% DMSO/PBS (V/V)) was first administered to the hypermyelinated mouse model through intravenous injected in the tail vein. The fluorescence signals were recorded at 2, 4, 6, 8, 10, 15, 20, 25, 30, 40, 50, 60, 70, 80, 90, 100, 110 and 120 min post injection. To exclude the influence of autofluorescence from the mouse tissues and impact from the solution, the vehicle (0.05% DMSO/PBS (V/V)) also injected and fluorescence was recorded at 2, 4, 6, 8, 10, 15, 20, 25, 30, 40, 50, 60, 70, 80, 90, 100, 110 and 120 min to compare with the CNIR solution (images not shown). […]

myelin [4] = assay: In vivo NIRF imaging in shiverer mouse model; set-up: species or system shiverer mice and wild-type mice; details: for fluorescent intensities in the brain, shiverer versus wild-type mice / time of peak fluorescent signal in shiverer mice / average radiance in wild-type mice relative to shiverer mice: 0.1 mg/kg i.v.; for time of peak fluorescent signal in shiverer mice: brain; for average radiance in wild-type mice relative to shiverer mice: at 30 minutes, after deducting vehicle signals
Method: We then evaluated the pharmacokinetic profiles of CNIR in 3-month old female shiverer mice (n=3) and age-matched wild-type mice (n=2). The in vivo NIR imaging was conducted using the same dosage as in the hypermyelinated mouse model. The fluorescent signals were recorded at 2, 4, 6, 8, 10, 15, 20, 25, 30, 40, 50, 60, 70, 80, 90, 100, 110 and 120 min after i.v. injection of CNIR and the vehicle (0.05% DMSO/PBS (V/V)).

MBP = assay: CNP staining followed by MBP antibody staining in the same brain tissue sections; format: binding, mouse; details: cerebellum, frontal cortex, caudate putamen; CNP 1 mM
Method: After incubation with 3% normal goat serum in 1×PBS for 60 min, the fresh frozen sections were immunostained overnight at 4° C. with purified SMI99 mouse monoclonal anti-MBP (Covance, Inc. Princeton, N.J.) 1:500 dilution in 3% normal goat serum in 1×PBS, followed by one hour incubation at room temperature with Fluorescein (FITC) AffiniPure Goat Anti-Mouse IgG (H=L) (Jackson ImmunoResearch Laboratories, Inc. West Grove, Pa.) 1:500 dilution, then rinsed in 1×PBS (2×5′). The stained sections were covered with fluorescence mounting medium (Vectashield, Vector laboratories). Images of the stained mouse brain sections were acquired on a Leica DM5000 inverted microscope (L5 filter, BP 527/30).
(§1) Fresh frozen sections with 20 μm thickness were incubated in 0.1% Triton-100 in 1×PBS for 10 min, which was followed by incubation in a solution of CNP (1 mM) in 1% DMSO/1×PBS for 30 min at room temperature. The fresh frozen sections were then washed three times for 5 min each with 1×PBS before cover-slipping with fluorescence mounting medium (Vectashield, Vector laboratories). Images of the stained mouse brain sections were acquired on a Leica DMI5000 inverted microscope (Y5 filter, BP 700/75).
To determine the exact binding sites of CNP, we compared both CNP and MBP staining conducted in the same brain tissue sections. […]

[5] = test system: LPC induced demyelination lesion; assay: CNP staining of rat brain sections after imaging in the focal demyelination model; format: binding; details: LPC-rats versus saline-rats, compared with Black-Gold II
Method: Focal demyelination of adult rat brain. Sprague Dawley female rats (Harlan Laboratory, Indianapolis, Ind.), 12 weeks of age, were used for this study. Animal surgery and care was performed in accordance with the Institutional Animal Care and Use Committee of Case Western Reserve University Animals were anesthetized using a mixture of ketamine hydrochloride (64.2 mg/kg), xylazine hydrochloride (12.9 mg/kg), and acepromazine (12.9 mg/kg) and positioned in a stereotaxic frame (Stoelting). […]
Fresh frozen section: Mice or rats were deeply anesthetized with isoflurane and perfused via the ascending aorta with PBS followed by 4% paraformaldehyde in PBS. […] Tissue from the midline of the brain containing the whole corpus callosum was selected for staining Stained sections were covered with fluorescence mounting medium (Vectashield; Vector Laboratories, Burlingame, Calif.) and stored at 4° C. for future analysis.
as §1, with “Images of the stained mouse brain sections were acquired on a Leica DMI5000 inverted microscope (Y5 filter, BP 700/75).” left out

myelin [6] = assay: In vivo microPET-MR imaging in focal demyelination rat model
Method: Focal demyelination of adult rat brain. Sprague Dawley female rats (Harlan Laboratory, Indianapolis, Ind.), 12 weeks of age, were used for this study. Animal surgery and care was performed in accordance with the Institutional Animal Care and Use Committee of Case Western Reserve University Animals were anesthetized using a mixture of ketamine hydrochloride (64.2 mg/kg), xylazine hydrochloride (12.9 mg/kg), and acepromazine (12.9 mg/kg) and positioned in a stereotaxic frame (Stoelting). A small incision was made in the scalp, and the corpus callosum was targeted using the following stereotaxic coordinates, relative to bregma: anterior-posterior, 0.0 mm; medial-lateral, 2.0; and dorsal-ventral, 3.4. A small hole was drilled in the skull, and a 26 S gauge needle attached to a 10 μl Hamilton Syringe was lowered into the corpus callosum according to the dorsal-ventral coordinate. A microinjector pump (Stoelting) controlled the infusion of 6 μl of lysolethicin (lysophosphatidyl chorine) or saline at a rate of 0.25 μl/min, after which the needle was left in place for 2 min to prevent liquid reflux out of the brain parenchyma. The incision was then closed using 5-0 Ethicon sutures, and the animals were allowed to recover on a heating pad. The imaging of demyelination of the rats and vehicles were performed 5 d after surgery. The rats were kept alive.
Animals were placed in a Concord R4 microPET scanner (Knoxyille, Tenn.) under anesthesia. After a 10 min transmission scan with a Co-57 source, 7.4 MBq of [11C]DAS were administered to each animal through a tail vein injection, which was immediately followed by dynamic acquisition for up to 90 min. A 2-D filtered back projection (FBP) algorithm was used for image reconstruction with a 256×256 pixel resolution per transverse slice. A total of 63 transverse slices were reconstructed with the field of view covering the head of the animals. Decay correction, attenuation correction and scatter correction were all performed during the image histogram and reconstruction processes.
All MR imaging experiments were performed on a Bruker Biospec 7.0T/30 cm MRI and Spectroscopy scanner (Bruker Biospin, Billerica, Mass.). The animal's head was positioned in a 72-mm volume ID cylindrical transceiver coil. […]
Coregistration of MRI and PET images, PET and CT images were conducted by using the MATLAB-based program COMKAT (Compartmental Model Kinetic Analysis Tool). […] After creating uniform images from the PET and MRI images, VOI (Volume of interest) and ROI (Region of interest) were defined and used to measure the radioactivity concentration in the corpus callosums of both hypomyelinated and wild type mice. […]
The radioactivity was decay-corrected and normalized by the body weight of the mice and the amount of [^11C] […]

[7] = corpus callosum, 0-60 min microPET

Structure (SMILES) | maximal emission wavelength [1] | maximal excitation wavelength [1] | labeling of myelin sheaths in wild-type mouse brain sections (myelin sheaths; 1 μM, free floating sections) | brain permeability [2] | fluorescent radiance / average fluorescent intensity in Plp-Akt-DD mice compared with wild-type mice (myelin [3]; 2-120 min post injection) | clearance in wild-type control mice (myelin [3]; brain fluorescence) | clearance in hypermyelinated (Plp-Akt-DD) mice (myelin [3]; brain fluorescence, compared to WT) | fluorescent intensities in the brain, shiverer versus wild-type mice (myelin [4]) | time of peak fluorescent signal in shiverer mice (myelin [4]) | average radiance in wild-type mice relative to shiverer mice (myelin [4]) | labeling of myelin sheaths in wild-type mouse brain sections (myelin sheaths; 100 μM, fresh frozen sections) | labeling of myelin sheaths in wild-type and shiverer mouse brain sections (myelin sheaths; 1 mM, fresh frozen sections) | antibody staining of MBP after CNP staining of the same section (MBP) | brain entry (myelin [4]; summary statement at the head of Example 1) | detection of demyelination lesion in brain sections [5] | uptake in control rat brain compared with demyelinated rat brain (myelin [6]; corpus callosum ROI, 60 min microPET scan) | average SUV in demyelinated region, lower than control myelinated region (myelin [6]; [7]) | average SUV in demyelinated region, lower than remyelinated region (myelin [6]; [7]) | localization in brain (myelin [6]; white matter versus gray matter)
CCN1\C(=C/C=C/C=C/C=C/c2sc3ccccc3[n+]2CC)Sc2ccccc21.[I-] [CNIR, 3,3′Diethylthiatricarbocyanine iodide] | 797 nm | 782 nm | selectively labeled intact myelin sheaths | can readily penetrate the intact blood-brain barrier | much stronger; also recorded: higher | fast clearance | relatively slower clearance | significant different | 2 min | eightfold greater | – | – | – | – | – | – | – | – | –
COc1cccc(CN2\C(=C/C=C/C=C/C=C/c3sc4ccccc4[n+]3Cc3cccc(OC)c3)Sc3ccccc32)c1.[Br-] [CNP] | – | – | – | – | – | – | – | significantly different | 5 min | four fold greater | bind specifically to myelin sheaths | selectively labeled intact myelin sheaths | significantly blocked | readily enters the brain | can detect the LPC induced demyelination lesion | – | – | – | –
COc1cccc(C[n+]2c(/C=C/C=C/C=C/C=C3/Sc4ccccc4N3Cc3cccc(O[11CH3])c3)sc3ccccc32)c1 [[^11C] CNP] | – | – | – | – | – | – | – | – | – | – | – | – | – | – | – | significantly higher | 40% | 20% | preferentially localizes in the myelin-rich white matter
